We go through 2 molecules from patent US8198236B2, “Methods and compositions for the treatment of cancer” (Washington University, priority 2007, dated 2012).

For one data set, the system named is MMTV-Wnt1 tumors. Briefly: MMTV-Wnt1 tumor transplant growth in nude mice. The note with it: i.p. every other day, first dose 15 mg/kg then 10 mg/kg, three weeks. It is filed as in vivo. The procedure:
Recombinant Mesd protein was prepared as described (Li Y, et al. (2005) J Cell Sci 118(22): 5305-5314). Mesd peptide, […] (SEQ ID NO: 14), was manufactured by Abgent (San Diego). Female athymic nude mice (Taconic) (6-8 weeks old) were used for passaging tumors from MMTV-Wnt1 mice (Taconic). MMTV-Wnt1 tumors were serially passaged in mice by implantation in the mammary fat pad as described (DeAlmeida V, et al. (2007) Cancer Res 67, 5371-5379). Therapeutic agents (200 μL Mesd protein, Mesd peptide or PBS) were administrated i.p. with a first dose of 15 mg/kg, followed by 10 mg/kg (9 more doses). Three groups of mice were treated every other day for three weeks and tumor volumes were measured thrice weekly.
The pharmacokinetics and bioavailability of Mesd and Mesd peptide ([…] (SEQ ID NO: 14)) were first investigated (FIG. 23). Cells from MMTV-Wnt1 tumors were injected into the mammary fat pads of female nude mice, and the resultant mice were subsequently randomly grouped when the mean tumor volume reached ca. 200 mm^3. […]
In these experiments, mice bearing established MMTV-Wnt1 tumor transplants were divided into three groups (five animals per group) and were i.p. injected with PBS (vehicle), Mesd, or Mesd peptide every other day. Tumor volume was analyzed using caliper measurement. […]

The test system of data set [1] is Wnt signaling. The experiment in a line: Wnt signaling in MMTV-Wnt1 tumors (GST-E-cadherin pull-down, c-Myc expression). As to conditions: GST-E-cadherin pull-down and c-Myc expression. The data set is classed as in vivo, mice. The procedure: The GST-E-cadherin pulldown assay was performed as previously described (2). Cells expressing control or LRP6 shRNA were treated with L cells or Wnt3a-conditioned media (CM) for 4 h. Free β-catenin was determined using a GST-E-cadherin pull-down assay. Cells were lysed for 30 minutes at 4° C. Protein concentrations in lysates were quantified, and equal quantities of total proteins from different samples were incubated with GST-E-cadherin Sepharose beads for 4 h at 4° C. After incubation, the beads were washed three times and the bound proteins were eluted and separated via SDS-PAGE. Western blotting was performed using antibody to β-catenin.
In these experiments, mice bearing established MMTV-Wnt1 tumor transplants were divided into three groups (five animals per group) and were i.p. injected with PBS (vehicle), Mesd, or Mesd peptide every other day. Tumor volume was analyzed using caliper measurement. Data represent at least three independent experiments and each time point represents the mean tumor volume±SEM. *p<0.05; **p<0.01. […] Scale bar=50 μm.

For data set [2] the following is noted: mouse, in vivo.
Protocol: In experiments shown in FIG. 23, pharmacokinetics of Mesd peptide and Mesd were examined. FIG. 23A: Amount of Mesd in serum following a single dose of protein administration. Mice were dosed at 5, 10, 20 mg/kg of Mesd via i.p. and the serum samples were collected from individual mice at the indicated time points. The levels of Mesd in serum were quantified by comparison to Mesd pure protein with known concentrations in Western blot analysis. Values are the average of triple determinations with S.D. indicated by error bars. […] Samples were obtained by terminal bleed under anesthesia at each of the indicated time points (N=3 animals per time point). Radioactivity was measured using a gamma counter and DPM converted to mass units/mL blood using the specific activity (DPM/mass) of each test substance. Data are plotted as mass U/mL of test substance with standard deviation indicated by error bars.
The conditions of data set [3]: mouse, in vivo. This is another data set of the same source.
Protocol: Hemotoxylin and eosin (H&E) staining was performed on tumor xenograft tissue, skin and intestine harvested at the end of Mesd treatment.
FIG. 24D: H&E staining of tail vertebrae treated with PBS, Mesd or Mesd peptide.
Data set [4] has as its system Wnt signaling. Briefly: TCF/LEF-luc reporter assay in Wnt-3A-treated HEK293 cells. It is filed as cell-based. As to conditions: Wnt3A conditioned medium plus Dkk1 at 10 nM, 16 hours at 37° C. The procedure: HEK293 cells were plated into six-well plates. For each well, 0.1 μg of the TOP-FLASHTCF luciferase construct (Upstate Biotechnology) was cotransfected with 0.8 μg Mesd-expressing vector, 0.8 μg Mesd mutant-expressing vector, or empty vector. A β-galactosidase-expressing vector (Promega, Madison, Wis.) was included as an internal control for transfection efficiency. After 48 hours, cells were lysed and both luciferase and β-galactosidase activities were determined with enzyme assay kits (Promega). The luciferase activity was determined with a luminometer using the Dual Luciferase Assay system (Promega). Luciferase activity was normalized to the activity of the β-galactosidase.
In these experiments, transfected cells were treated without Wnt-3A or with Wnt-3A plus the indicated inhibitors (Mesd and/or Dkk1) for 16 hours at 37° C. Wnt signaling was measured by quantifying the luciferase activity using a live cell imaging system.
(In general: A reporter such as luciferase makes a cellular process visible.)

The test system of the next data set is HCC1187 cells. Briefly: MTT assay of Wnt3a CM-stimulated growth of HCC1187 cells. The data set is classed as cell-based, human. As to conditions: Dkk1 10 nM, 24 h. The procedure:
Cell growth and cell proliferation were measured by MTT assay (Promega) and BrdU incorporation using the BrdU ELISA kit (Roche Molecular Systems) according to the manufacturers' instructions. […] Breast cancer cells expressing control or LRP6 shRNA were seeded into 48-well plates. MTT-labeling reagent was added to each well 24 h later, and plates were incubated at 37° C. for 4 h. After the incubation period, the formazan crystals were dissolved in an MTT solubilization reagent and the resulting color was quantified spectrophotometrically. In some experiments, cell proliferation was measured by BrdU incorporation using the BrdU ELISA kit (Roche Molecular Systems) according to the manufacturer's instructions. Briefly, cancer cells expressing control or LRP6 shRNA were plated on 96-well plate. Cells were incubated with BrdU for 24 h, and the newly synthesized BrdU-DNA was then determined by colorimetry using an ELISA reader. All experiments were performed three times in triplicate.
In FIG. 20, * indicates p<0.05 compared to L cell CM; ** indicates p<0.01 compared to L cell CM.

Take “KGGGSKEKNKTKQDKGKKKKEGDLKSRSSKEENRAGNK [Mesd peptide]”: the “Tumor growth (tumor volume, caliper)” value in the data set with MMTV-Wnt1 tumors is “significantly inhibit tumor growth”. In addition, the “Wnt signaling in tumors compared to control treatment” value in the data set on Wnt signaling [1] is “decreased Wnt signaling”. In data set [2], the Bioavailability was found to be 60%; the Distribution into tissues entry was “rapid and widespread”. Moreover, in data set [3], the “Adverse effect on small intestine (gross examination)” value is “no significant adverse effect”; the “Architecture of gastrointestinal compartments and skin (H&E)” value was “morphologically normal”; the “Bone lesions or outgrowths in tail vertebrae” value is recorded as “no significant bone lesions or outgrowths”; the “General health and body weight of treated mice” value is “grossly healthy and maintain their weights”.

B1: Dkk1: Human recombinant DKK1 protein, LRP6-specific ligand and antagonist (protein)
chain: TLNSVLNSNAIKNLPPPLGGAAGHPGSAVSAAPGILYPGGNKYQTIDNYQPYPCAEDEECGTDEYCASPTRGGDAGVQICLACRKRRKRCMRHAMCCPGNYCKNGICVSSDQNHFRGEIEETITESFGNDHSTLDGYSRRTTLSSKMYHTKGQEGSVCLRSSDCASGLCCARHFWSKICKPVLKEGQVCTKHRRKGSHGLEIFQRCYCGEGLSCRIQKDHHQASNSSRLHTCQRH
Consider B1, for which, in the data set on Wnt signaling [4], the “Inhibition of Wnt signaling (luciferase activity)” value was “more potent inhibitor”. Also, in the data set with HCC1187 cells, the “Effect on Wnt3a CM-increased cell growth” value is “abolished”.
